Test results from patent publication US20250333418A1, “PURINE COMPOUNDS, COMPOSITIONS COMPRISING THEM AND USES THEREOF” (Novo Nordisk A/S, priority 2022, published 2025).

Legend:
human CB1 receptor [1] = molecular target: T1, human CB1 receptor (Homo sapiens, UniProt P21554); experiment: bioSensAll GAPL-Gi2 BRET biosensor assay in HEK293 cells transfected with hCB1; test compound added before EC75-80 of agonist CP55,940 (0.1 nM); type: cell-based; details: vs CP55,940 0.1 nM (EC75-80), read-out: CB1 wt Gi2 IC50
T1 construct: expressed in transfected cells; host or cells: HEK293
How it was run: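 Test compounds at 12 doses up to 600 nM preceded a 0.1 nM CP55,940 challenge in hCB1/GAPL-Gi2 HEK293 cells. After overnight 37° C incubation, methoxy e-coelenterazine (2 µM final) was added and the 515/400 nm BRET ratio normalized to positive and negative controls.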

human CB1 receptor [2] = molecular target: T1, human CB1 receptor; experiment: bioSensAll β-arrestin2 plasma membrane translocation (+GRK2) BRET biosensor assay in HEK293 cells transfected with hCB1; test compound added before EC75-80 of agonist CP55,940 (100 nM); type: cell-based; details: βArrestin2 (+GRK2) BRET biosensor, vs CP55,940 100 nM (EC75-80), read-out: CB1 wt βarr2 IC50
How it was run: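 HEK293 cells co-transfected with hCB1 and β-arrestin2 PM-translocation BRET biosensor (+GRK2); 48 h post-transfection in HBSS, test compound (0–600 nM, 12 points) added 3–5 min before CP55,940 at 100 nM (EC75-80). Overnight incubation at 37 °C; BRET (515/400 nm) read after 2 µM e-coelenterazine Prolume Purple, standardized to controls.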

T1 sequence (P21554 whole entry): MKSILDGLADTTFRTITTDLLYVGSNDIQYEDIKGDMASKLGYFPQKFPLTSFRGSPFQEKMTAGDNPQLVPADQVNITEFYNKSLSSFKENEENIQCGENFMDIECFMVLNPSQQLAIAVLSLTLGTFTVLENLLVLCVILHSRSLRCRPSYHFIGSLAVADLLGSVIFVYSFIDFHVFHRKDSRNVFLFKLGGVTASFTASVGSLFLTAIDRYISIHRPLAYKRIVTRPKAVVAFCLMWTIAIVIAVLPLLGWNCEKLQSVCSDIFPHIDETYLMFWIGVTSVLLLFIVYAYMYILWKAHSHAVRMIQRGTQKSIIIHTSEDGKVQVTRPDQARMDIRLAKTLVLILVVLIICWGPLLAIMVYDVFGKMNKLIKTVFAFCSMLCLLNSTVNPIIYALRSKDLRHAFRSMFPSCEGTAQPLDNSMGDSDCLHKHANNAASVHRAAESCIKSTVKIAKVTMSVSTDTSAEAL

Row | Structure (SMILES) | IC50 (human CB1 receptor [1]) [nM] | IC50 (human CB1 receptor [2]) [nM]
1 | CC(=O)N1CCN(c2nc(OCC(C)(C)O)nc3c2nc(-c2ccccc2Cl)n3-c2ccc(Cl)cc2)CC1 [Compound 222] | 1.56 | 7.91
2 | CC1(C(N)=O)CCN(c2nc(N3CC[C@@](C)(O)C3)nc3c2nc(-c2ccccc2Cl)n3-c2ccc(Cl)cc2)CC1 [Compound 223] | 0.916 | 2.8
3 | COC(=O)N1CCN(c2nc(OCC(C)(C)O)nc3c2nc(-c2ccccc2Cl)n3-c2ccc(Cl)cc2)CC1 [Compound 224] | 1.27 | 7.99
4 | CC(=O)NC1(C)CCN(c2nc(OCC(C)(C)O)nc3c2nc(-c2ccccc2Cl)n3-c2ccc(Cl)cc2)CC1 [Compound 226] | 0.767 | 2.31
5 | CN1CCN(c2nc(OCC(C)(C)O)nc3c2nc(-c2ccccc2Cl)n3-c2ccc(Cl)cc2)CC1 [Compound 227] | 4.78 | 11.7
6 | CN1C[C@H](F)C[C@H]1COc1nc(N2CCC(C)(C(N)=O)CC2)c2nc(-c3ccccc3Cl)n(-c3ccc(Cl)cc3)c2n1 [Compound 228] | 1.2 | 2.29
7 | CN1C[C@H](F)C[C@H]1COc1nc(N2CCC(C)(C(N)=O)CC2)c2nc(-c3ccccc3Cl)n(-c3ccc(Cl)cc3)c2n1 [Compound 232] | 0.934 | 1.94
8 | CN1C[C@H](Oc2nc(N3CCC(C)(C(N)=O)CC3)c3nc(-c4ccccc4Cl)n(-c4ccc(Cl)cc4)c3n2)C[C@H]1CO [Compound 236] | 2.89 | 22.8
9 | NC(=O)C1CN(c2nc(N3CCC[C@H]3CO)nc3c2nc(-c2ccccc2Cl)n3-c2ccc(Cl)cc2)C1 [Compound 237] | 0.61 | 1.93
10 | CCN1CCN(c2nc(OCC(C)(C)O)nc3c2nc(-c2ccccc2Cl)n3-c2ccc(Cl)cc2)CC1 [Compound 240] | 5.79 | 12.2
